In patent US11434246B2, “EP4 antagonists” (Eisai R&D Management Co., Ltd., priority 2015, dated 2022) one finds IC50 data, which are given here for 20 molecules.

The structures appear in SMILES notation.

Sequence of EP4 (P35408 whole entry): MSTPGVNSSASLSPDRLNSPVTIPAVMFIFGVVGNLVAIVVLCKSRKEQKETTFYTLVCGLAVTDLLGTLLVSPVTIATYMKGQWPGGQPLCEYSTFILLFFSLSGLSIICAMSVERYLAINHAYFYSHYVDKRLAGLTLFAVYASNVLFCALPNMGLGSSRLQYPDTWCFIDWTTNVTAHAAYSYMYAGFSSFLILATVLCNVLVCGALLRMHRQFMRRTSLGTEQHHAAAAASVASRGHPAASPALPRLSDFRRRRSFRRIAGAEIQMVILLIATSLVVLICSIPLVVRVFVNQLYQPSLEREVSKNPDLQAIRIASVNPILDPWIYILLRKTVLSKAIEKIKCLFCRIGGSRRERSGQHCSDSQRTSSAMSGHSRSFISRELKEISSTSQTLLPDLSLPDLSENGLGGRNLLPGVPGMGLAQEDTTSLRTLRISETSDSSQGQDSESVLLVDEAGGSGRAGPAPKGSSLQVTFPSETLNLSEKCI

The assay concerns the target EP4 (Homo sapiens, UniProt P35408). The experiment in a line: EP4 Antagonism by CRE-PLAP Reporter Assay (SE302 cells, PGE2-stimulated). Type of assay: cell-based. Also noted: HEK293 cells express endogenous EP4; endogenous in cells; host or cells: SE302 (HEK293 clone with CRE-PLAP reporter). As to conditions: SE302 (HEK293) cells, 3 ng/mL PGE2, overnight; single or multiple assay average values. An outline of the steps: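 HEK293-derived SE302 cells with endogenous EP4 and CRE-driven secreted PLAP, in serum-free medium with 0.1% BSA, stimulated overnight with 3 ng/mL PGE2 plus compound. Supernatant PLAP read by luminescence (pH 11 carbonate buffer, 2 h). IC50 from % of control, normalized to DMSO with and without PGE2.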
On to `C[C@H](NC(=O)c1c(C(F)(F)F)nn2c1N(Cc1cccc(Cl)c1)CC2)c1ccc(C(=O)O)cc1` [Compound 12, (S)-4-(1-(1-(3-chlorobenzyl)-6-(trifluoromethyl)-2,3-dihydro-1H-imidazo[1,2-b]pyrazole-7-carboxamido)ethyl)benzoic Acid], for which it took 2.23 nM to reach half-maximal inhibition (IC50). This counts as single-digit nanomolar. Next, `C[C@H](NC(=O)c1c(C(F)(F)F)nn2c1N(Cc1ccccc1Cl)CC2)c1ccc(C(=O)O)cc1` [Compound 43, (S)-4-(1-(1-(2-chlorobenzyl)-6-(trifluoromethyl)-2,3-dihydro-1H-imidazo[1,2-b]pyrazole-7-carboxamido)ethyl)benzoic Acid]: 4.17 nM; `C[C@H](NC(=O)c1c(C(F)(F)F)nn2c1N(Cc1cccc(C(F)(F)F)c1)CC2)c1ccc(C(=O)NC2(C#N)CC2)cc1` [Compound 101, (S)—N-(1-(4-((1-Cyanocyclopropyl)carbamoyl)phenyl)ethyl)-6-(trifluoromethyl)-1-(3-(trifluoromethyl)benzyl)-2,3-dihydro-1H-imidazo[1,2-b]pyrazole-7-carboxamide]: 32.9 nM. For `C[C@H](NC(=O)c1c(C(F)(F)F)nn2c1N(Cc1cccc(C(F)(F)F)c1)CC2)c1ccc(C(=O)O)c(F)c1` [Compound 25, (S)-2-fluoro-4-(1-(6-(trifluoromethyl)-1-(3-(trifluoromethyl)benzyl)-2,3-dihydro-1H-imidazo[1,2-b]pyrazole-7-carboxamido)ethyl)benzoic acid] the value was 1.1 nM. Next, `C[C@H](NC(=O)c1c(C(F)(F)F)nn2c1N(Cc1cccc(OC(F)(F)F)c1)CC2)c1ccc(C(=O)O)cc1` [Compound 11, (S)-4-(1-(1-(3-(trifluoromethoxy)benzyl)-6-(trifluoromethyl)-2,3-dihydro-1H-imidazo[1,2-b]pyrazole-7-carboxamido)ethyl)benzoic Acid]: 0.41 nM. Molecule `C[C@H](NC(=O)c1c(C(F)(F)F)nn2c1N(Cc1ccc(F)cc1)CC2)c1ccc(C(=O)O)cc1` [Compound 14, (S)-4-(1-(1-(4-fluorobenzyl)-6-(trifluoromethyl)-2,3-dihydro-1H-imidazo[1,2-b]pyrazole-7-carboxamido)ethyl)benzoic Acid] yielded an IC50 of 0.58 nM. The IC50 values of the last two molecules are within 1.5-fold of each other. For `C[C@H](NC(=O)c1c(C(F)(F)F)nn2c1N(Cc1cccc(C(F)(F)CO)c1)CC2)c1ccc(C(=O)O)cc1` [Compound 95, (S)-4-(1-(1-(3-(1,1-Difluoro-2-hydroxyethyl)benzyl)-6-(trifluoromethyl)-2,3-dihydro-1H-imidazo[1,2-b]pyrazole-7-carboxamido)ethyl)benzoic Acid] the value was 4.26 nM. For `C[C@H](NC(=O)c1c(C(F)(F)F)nn2c1N(Cc1cccc(OCCF)c1)CC2)c1ccc(C(=O)O)cc1` [Compound 75, (S)-4-(1-(1-(3-(2-fluoroethoxy)benzyl)-6-(trifluoromethyl)-2,3-dihydro-1H-imidazo[1,2-b]pyrazole-7-carboxamido)ethyl)benzoic Acid] the value was 4.66 nM; for `C[C@H](NC(=O)c1c(C(F)(F)F)nn2c1N(Cc1ccccc1C(F)(F)F)CCC2)c1ccc(C(=O)O)cc1` [Compound 46, (S)-4-(1-(2-(trifluoromethyl)-4-(2-(trifluoromethyl)benzyl)-4,5,6,7-tetrahydropyrazolo[1,5-a]pyrimidine-3-carboxamido)ethyl)benzoic Acid], 100 nM; for `C[C@H](NC(=O)c1c(C(F)(F)F)nn2c1N(Cc1cccc(CO)c1)CC2)c1ccc(C(=O)O)cc1` [Compound 64, (S)-4-(1-(1-(3-(hydroxymethyl)benzyl)-6-(trifluoromethyl)-2,3-dihydro-1H-imidazo[1,2-b]pyrazole-7-carboxamido)ethyl)benzoic acid], 0.82 nM.

In the case of `C[C@H](NC(=O)c1c(C(F)(F)F)nn2c1N(Cc1cccc(CCCF)c1)CC2)c1ccc(C(=O)O)cc1` [Compound 96, (S)-4-(1-(1-(3-(3-Fluoropropyl)benzyl)-6-(trifluoromethyl)-2,3-dihydro-1H-imidazo[1,2-b]pyrazole-7-carboxamido)ethyl)benzoic Acid], the IC50 came out at 0.866 nM. `C[C@H](NC(=O)c1c(C(F)(F)F)nn2c1N(Cc1ccc(I)c(C(F)(F)F)c1)CC2)c1ccc(C(=O)O)cc1` [Compound 68, (S)-4-(1-(1-(4-iodo-3-(trifluoromethyl)benzyl)-6-(trifluoromethyl)-2,3-dihydro-1H-imidazo[1,2-b]pyrazole-7-carboxamido)ethyl)benzoic acid]: 10.9 nM corresponded to half-maximal inhibition (IC50).

As for `C[C@H](NC(=O)c1c(C(F)(F)F)nn2c1N(Cc1cccc(Cl)c1)CCC2)c1ccc(C(=O)O)cc1` [Compound 42, (S)-4-(1-(4-(3-chlorobenzyl)-2-(trifluoromethyl)-4,5,6,7-tetrahydropyrazolo[1,5-a]pyrimidine-3-carboxamido)ethyl)benzoic Acid], inhibition was half-maximal at 13.6 nM (IC50). For `CCc1ccc(CN2CCn3nc(C(F)(F)F)c(C(=O)N[C@@H](C)c4ccc(C(=O)O)cc4)c32)cc1` [Compound 20, (S)-4-(1-(1-(4-ethylbenzyl)-6-(trifluoromethyl)-2,3-dihydro-1H-imidazo[1,2-b]pyrazole-7-carboxamido)ethyl)benzoic Acid] the value was 2.23 nM. For `C[C@H](NC(=O)c1c(CF)nn2c1N(Cc1cccc(C(F)(F)F)c1)CC2)c1ccc(C(=O)O)cc1` [Compound 91, (S)-4-(1-(6-(Fluoromethyl)-1-(3-(trifluoromethyl)benzyl)-2,3-dihydro-1H-imidazo[1,2-b]pyrazole-7-carboxamido)ethyl)benzoic Acid] the value was 0.636 nM. For `COC(=O)c1ccc([C@H](C)NC(=O)c2c(C(F)(F)F)nn3c2N(Cc2ccc(C(F)(F)F)cc2)CC3)cc1` [Compound 2, Methyl (S)-4-(1-(6-(trifluoromethyl)-1-(4-(trifluoromethyl)benzyl)-2,3-dihydro-1H-imidazo[1,2-b]pyrazole-7-carboxamido)ethyl)benzoate] the value was 3.9 nM. `C[C@H](NC(=O)c1c(C(F)(F)F)nn2c1N(Cc1cccc(CF)c1)CC2)c1ccc(C(=O)O)cc1` [Compound 67, (S)-4-(1-(1-(3-(fluoromethyl)benzyl)-6-(trifluoromethyl)-2,3-dihydro-1H-imidazo[1,2-b]pyrazole-7-carboxamido)ethyl)benzoic Acid] yielded an IC50 of 1.2 nM.

In turn, `C[C@H](NC(=O)c1c(C(F)(F)F)nn2c1N(Cc1cc(F)cc(C(F)(F)F)c1)CC2)c1ccc(C(=O)O)cc1` [Compound 84, (S)-4-(1-(1-(3-fluoro-5-(trifluoromethyl)benzyl)-6-(trifluoromethyl)-2,3-dihydro-1H-imidazo[1,2-b]pyrazole-7-carboxamido)ethyl)benzoic acid] gave an IC50 of 0.358 nM. This IC50 lies about 3.4-fold lower than the previous one. Next, `C[C@H](NC(=O)c1c(C(F)(F)F)nn2c1N(Cc1cc(CCCF)cc(C(F)(F)F)c1)CC2)c1ccc(C(=O)O)cc1` [Compound 99, (S)-4-(1-(1-(3-(3-Fluoropropyl)-5-(trifluoromethyl)benzyl)-6-(trifluoromethyl)-2,3-dihydro-1H-imidazo[1,2-b]pyrazole-7-carboxamido)ethyl)benzoic Acid]: 11.6 nM; `C[C@H](NC(=O)c1c(C(F)(F)F)nn2c1N(Cc1cccc(C(F)(F)F)c1)CC2)c1ccc(C(=O)NC#N)cc1` [Compound 52, (S)—N-(1-(4-(cyanocarbamoyl)phenyl)ethyl)-6-(trifluoromethyl)-1-(3-(trifluoromethyl)benzyl)-2,3-dihydro-1H-imidazo[1,2-b]pyrazole-7-carboxamide]: 0.07 nM.
